Reference: patent US7098195B2, “Fluorinated glucosamine analogs useful for modulating post-translational glycosylations on cells” (Health Research, Inc., priority 2001, dated 2006)
Like-named read-outs stand apart in the source and are kept apart here.

What was measured:
[1] = tested on: HCELL/CD44 activity on human hematopoietic KG1a cells; experiment: Stamper-Woodruff adhesion assay, L-selectin-dependent lymphocyte adherence to KG1a cells; type: cell-based; settings: for relative potency as inhibitor of HCELL activity: 4-F-GlcNAc vs swainsonine, tunicamycin vs both
Text: To study the effects of 4-F-GlcNAc on the function of the L-selectin binding activity of CD44 (HCELL), we employed the shear-based, Stamper-Woodruff adhesion assay to examine the ability of 4-F-GlcNAc-treated KG1a cells to support L-selectin-dependent lymphocyte adherence. This assay is utilized to specifically assess the shear-dependent binding interactions between L-selectin naturally expressed on lymphocytes and HCELL expressed on KG1a cells (Dimitroff, C. J. et al. (2000) Proc. Nat. Acad. Sci., 97(25):13841–46; Sackstein, R. and Dimitroff, C. J. (2000) Blood, 96: 2765–74.). Before treating KG1a cells with 0.05, 0.1 or 0.5 mM 4-F-GlcNAc, we first pretreated KG1a cells with Vibrio cholerae neuraminidase (0.1 U/ml for 1 hr at 37° C.) to cleave all terminal α2,3 sialic acid-bearing residues and eliminate all HCELL activity. Glutaraldehyde-fixed monolayers of KG1a cells that were first treated with Vibrio cholerae neuraminidase (0.1 U/ml for 1 hr at 37° C.) then re-cultured in the presence of 4-F-GlcNAc (0.05–0.5 mM) for 30 hr at 37° C. Metabolic inhibitors swainsonine, an inhibitor of α-mannosidase II, tunicamycin, an inhibitor of N-acetylglucosamine phosphototransferase, were also utilized to compare the relative potencies of known glycosylation inhibitors. Human peripheral blood lymphocytes (5×10^6cells/ml RPMI1640 w/o NaBicarbonate/5%FBS) were overlayed onto KG1a monolayers at 80 rpm for 30 min. at 4° C., and after gently washing in PBS, lymphocytes bound to cell monolayers were fixed in 3% glutaraldehyde. Re-expression of HCELL activity or HECA-452-reactive CD44 on KG1a cells was determined after […] of 4-F-GlcNAc treatment. Bound lymphocytes were quantified at 100× magnification from a minimum of 5 fields from 2 slides, and the mean number of lymphocytes (standard error of the mean) was calculated.

[2] = tested on: P-selectin ligand activity of murine Th1 cells; experiment: Flow chamber analysis of P-selectin binding on murine Th1 cells; type: cell-based, mouse
Text: (§1) CD4+ splenocytes were isolated from C57BL-6 mice by anti-murine CD4 L3T4 magnetic bead technology (Miltenyi Biotec) according to manufacturer's protocol. […] Culturing murine T helper cells in the presence of murine IL-12 and anti-murine IL-4 produces selectin binding Th1 cells by up-regulating FucTVII (69, 70) and core 2 enzyme (43–45, 71, 72), both critical for selectin ligand synthesis (i.e. decoration of PSGL-1 (67, 68)), and prevents the production of non-selectin binding Th2 cells (67–72). Th1 cells were also generated from mice deficient in α1,3 fucosyltransferase, FucTVII, and served as negative controls (33, 38, 40). Cells were harvested and re-plated at 2×10^6cells/ml on non-Ab coated plastic with murine IL-2 (20 ng/ml) in the presence or absence of murine IL-12 (10 ng/ml) and anti-murine IL-4 moAb 11B11 (10 μg/ml) for 48 h. […] Glycosylation inhibitors were added to cultures on day 6.5 for 30 hr, after first treating cells with neuraminidase (0.1 U/ml for 1 hr at 37° C.) to remove all cell surface terminal sialic acid resides and E and P-selectin ligand activity. Since selectin ligands are dependent on terminal sialic acid (α2,3 N-acetylneuraminic acid) for activity, this approach allowed for analysis of de novo synthesized selectin ligands in the presence of 0.05 mM 4-F-GlcNAc, N-glycan inhibitors, 0.23 mM swainsonine and 0.02 mM tunicamycin, and 1 mM GlcNAc (negative control).

[3] = tested on: E-selectin ligand activity of murine Th1 cells; experiment: Flow chamber analysis of E-selectin binding on murine Th1 cells; type: cell-based, mouse
Text: as §1

[4] = tested on: P-selectin ligand activity of CLA+ T-lymphocytes; experiment: Parallel-plate flow chamber, CLA+ T-cell tethering and rolling on P-selectin chimera; type: cell-based, human
Experimental: (§2) To analyze the affects of 4-F-GlcNAc on the function of CLA on human T-cells, we examined the ability of 4-F-GlcNAc-treated (0.05, 0.1, 0.5 mM for 30 hrs) CLA-+ T-cells cultures to engage with immobilized E- and P-selectin chimera in the parallel-plate flow chamber. As described for flow cytometric analyses (Example 13), cells were first pretreated with neuraminidase to remove terminal sialic acid residues required for HECA-452 reactivity and for E- and P-selectin ligand activity of CLA. This approach allowed for the assessment on de novo synthesized CLA molecules.
(§3) Tethering and rolling of human T-cells on recombinant human E- and P-selectin-Ig chimera (provided by Dr. Robert Fuhlbrigge, Harvard Medical School) and human L-selectin-Ig (gift from Dr. Ray Camphausen, Wyeth/Genetics Institute, Inc., Cambridge, Mass.) were analyzed in the parallel-plate flow chamber under physiologic shear stress conditions (3). To prepare E- and P-selectin-Ig chimera spots, protein A (300 μg/15 μl 0.1M NaHCO3) was adsorbed to Ten-twenty-nine™ Petri dishes for 2 h at 37° C. Human serum albumin ([…] PBS) then added and incubated for 2 h at 37° C. to block non-specific binding sites. E-selectin-Ig (50 ng/50 μl PBS) or P-selectin-Ig (50 ng/50 μl PBS) solutions was pipetted directly over the pre-existing protein A spots for 18 h at 4° C. To prepare L-selectin-Ig spots, L-selectin-Ig (300 ng/15 μl PBS) or isotype control human IgG (300 ng/15 μl) were adsorbed directly to plastic (non-protein A-coated) for 18 h at 4° C. and blocked in 100% FBS for 2 h at 4° C.
(§4) CLA^+ T-cells or freshly isolated PBL were treated with neuraminidase and metabolic glycosylation inhibitors or with protease (bromelain) as described above, washed twice in HBSS, suspended at 2×10^6/ml in HBSS/10 mM HEPES/2 mM CaCl2 (H/H/Ca^++) and infused into the chamber over selectin chimeras. Protease treatment was performed to control for residual E-selectin activity not attributable to the expression of CLA on a protein scaffold. Cell tethering was permitted at 0.6 dynes/cm^2 for 1 min, then stepwise increments in shear stress every 15 sec were employed to a final shear stress level of 60 dynes/cm^2. The number of cells rolling/viewing field (at 100× magnification) was quantified at each level of shear stress in triplicates for a minimum of three experiments. […] Negative control experiments were performed in parallel, wherein cell binding was examined in H/H adhesion assay medium containing 5 mM EDTA as well as assaying cell binding to human IgG isotype control.
(§5) Utilizing the parallel-plate flow chamber under physiologic shear stress conditions, E-, P- and L-selectin ligand activities of human CLA^+ T-cells treated were analyzed in an identical manner as cells prepared for Western blotting and autoradiography studies.

[5] = tested on: E-selectin ligand activity of CLA+ T-lymphocytes; experiment: Parallel-plate flow chamber, CLA+ T-cell tethering and rolling on E-selectin chimera; type: cell-based, human
Experimental: as §2, §3, §4, §5

[6] = 30 hr after neuraminidase, 0.05 mM 4-F-GlcNAc, 0.23 mM swainsonine, 0.02 mM tunicamycin, 1 mM GlcNAc
[7] = at 2.0 dynes/cm^2, tunicamycin 0.02 mM, swainsonine 0.23 mM, 4-F-GlcNAc 0.05 mM, BAG 2.0 mM, p<0.01
[8] = neuraminidase then 0.1 and 0.5 mM for 30 hrs
[9] = 30 h following neuraminidase digestion, drug control

## CC(=O)N[C@H]1C(OC(C)=O)O[C@H](COC(C)=O)[C@@H](F)[C@@H]1OC(C)=O (stereo partly drawn) [4-F-GlcNAc, 2-acetamido-2-deoxy-1,3,6-tri-O-acetyl-4-deoxy-4-fluoro-D-glucopyranose]
[1]
  relative potency as inhibitor of HCELL activity: more potent inhibitor of HCELL activity
[1]; Homo sapiens, KG-1a, KG1a neuraminidase then recovery in 0.05 mM, read-out: % Inhibition (lymphocyte binding)
  inhibition at 50 µM: 60%
[1]; Homo sapiens, KG-1a, KG1a neuraminidase then recovery in 0.1 mM, read-out: % Inhibition (lymphocyte binding)
  inhibition at 100 µM: 78%
[1]; Homo sapiens, KG-1a, KG1a neuraminidase then recovery in 0.5 mM, read-out: % Inhibition (lymphocyte binding)
  inhibition at 500 µM: 94%
[1]; KG1a neuraminidase then recovery in 0.05 mM
  Mean Lymphocyte Binding: 93.6
[1]; KG1a neuraminidase then recovery in 0.1 mM
  Mean Lymphocyte Binding: 50.6
[1]; KG1a neuraminidase then recovery in 0.5 mM
  Mean Lymphocyte Binding: 15.4
[2]; [6]
  recovery of P-selectin ligand activity of Th1 cells: completely inhibited
[3]; [6]
  recovery of E-selectin ligand activity of Th1 cells: completely inhibited
[4]; 0.05 mM, p<0.001
  difference in cell rolling frequency on P-selectin chimera vs PBS recovery: statistically significant
[4]; [7]
  rolling adhesions on P-selectin chimera: significant reductions
[4]; [8]
  CLA+ T-cell tethering and rolling mediated by P-selectin: completely abolished
[5]
  E-selectin ligand activity compared with protease treatment: did not reduce E-selectin ligand activity below that of protease-treatment
[5]; 0.05 mM, p<0.001
  difference in cell rolling frequency on E-selectin chimera vs PBS recovery: statistically significant
[5]; [7]
  rolling adhesions on E-selectin chimera: significant reductions
[5]; [8]
  CLA+ T-cell tethering and rolling mediated by E-selectin: completely abolished

## CC(=O)N[C@H]1C(O)O[C@H](CO)[C@@H](O)[C@@H]1O (stereo partly shown) [GlcNAc, N-acetylglucosamine]
[2]; [6]
  recovery of P-selectin ligand activity of Th1 cells: no effect
[3]; [6]
  recovery of E-selectin ligand activity of Th1 cells: no effect
[4]; [9]
  recovery of P-selectin ligand activity: > 80 % recovery
[5]; [9]
  recovery of E-selectin ligand activity: > 80 % recovery

## O[C@H]1[C@H]2[C@H](O)CCCN2C[C@H]1O [swainsonine]
[1]; Homo sapiens, KG-1a, KG1a neuraminidase then recovery in 0.23 mM, read-out: % Inhibition (lymphocyte binding)
  inhibition at 230 µM: 74%
[1]; KG1a neuraminidase then recovery in 0.23 mM
  Mean Lymphocyte Binding: 60.7
[2]
  recovery of P-selectin ligand activity of Th1 cells: no effect
[3]
  recovery of E-selectin ligand activity of Th1 cells: no effect
[4]
  rolling adhesions on P-selectin chimera: no effect
[5]
  rolling adhesions on E-selectin chimera: no effect

## tunicamycin
[1]
  relative potency as inhibitor of HCELL activity: more potent inhibitor of HCELL activity than both swainsonine and 4-F-GlcNAc
[2]
  recovery of P-selectin ligand activity of Th1 cells: completely inhibited
[3]
  recovery of E-selectin ligand activity of Th1 cells: completely inhibited
[4]
  rolling adhesions on P-selectin chimera: significant reductions
[5]
  rolling adhesions on E-selectin chimera: significant reductions
